Data set [1] has as its target T1, Aldo-keto reductase family 1 member C2 (Homo sapiens, UniProt P52895).
T1 sequence (P52895 whole entry): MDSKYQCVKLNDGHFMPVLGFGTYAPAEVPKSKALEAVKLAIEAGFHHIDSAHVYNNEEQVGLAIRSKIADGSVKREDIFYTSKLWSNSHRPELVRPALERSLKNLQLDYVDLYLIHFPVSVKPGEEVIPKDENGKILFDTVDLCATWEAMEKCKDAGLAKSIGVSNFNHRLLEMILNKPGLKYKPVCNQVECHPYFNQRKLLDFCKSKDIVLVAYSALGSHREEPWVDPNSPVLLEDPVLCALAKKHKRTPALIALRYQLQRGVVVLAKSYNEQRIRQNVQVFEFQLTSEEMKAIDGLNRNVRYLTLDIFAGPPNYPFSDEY
The data set is described as follows: Inhibition of human recombinant AKR1C2 transfected in Escherichia coli BL21 (DE3) pLysS competent cells using S-tetralol as substrate assessed as inhibition of NADP+ dependent substrate oxidation incubated for 10 mins by fluorescence microplate reader assay.

A short description of data set [2]: MRT (0 to infinity) in Sprague-Dawley rat at 2 mg/kg, iv measured for 5760 mins by LC-MS/MS analysis. As to conditions: in vivo. Format: ADME, organism-based.
Data set [3] can be described thus: Toxicity in BALB/c nude mouse xenografted with human MCF7 cells expressing AKR1C3 assessed as reduction in body weight at 10 mg/kg, po administered every 2 days for 3 weeks and measured every 3 days. Format: organism-based. The following applies: in vivo, 504 h.
Data set [4] is described as follows: Toxicity in BALB/c nude mouse xenografted with human MCF7 cells expressing AKR1C3 assessed as histopathological changes in spleen at 10 mg/kg, po administered every 2 days for 3 weeks by H and E staining based analysis. Format: organism-based. As to conditions: in vivo, 504 h.
Data set [5] in a line: Toxicity in BALB/c nude mouse xenografted with human MCF7 cells expressing AKR1C3 assessed as histopathological changes in kidneys at 10 mg/kg, po administered every 2 days for 3 weeks by H and E staining based analysis. Format: organism-based. As to conditions: in vivo, 504 h. Background: In xenograft studies the graft and the host belong to different species.
Data set [6] deals with MCF7. The data set is described as follows: Antiproliferative activity against human MCF7 cells overexpressing AKR1C3 assessed as cell survival rate at 50 uM incubated for 72 hrs by MTT assay relative to control. Format: functional.
Data set [7] has as its system MCF7. Kind of data set: Synergistic antiproliferative activity against human MCF7 cells overexpressing AKR1C3 assessed as combination index at 10 uM incubated for 72 hrs in presence of doxorubicin at 20 nM by Chou-Talalay method. Format: functional.
In data set [8] the test system is MCF7. The data set is described as follows: Synergistic antiproliferative activity against human MCF7 cells overexpressing AKR1C3 assessed as dose reduction index for doxorubicin at 50 uM incubated for 72 hrs in presence of doxorubicin at 200 nM by Chou-Talalay method. Format: functional.

What is called IC50 is the point on the concentration scale where inhibition reaches its midpoint. By MRT inf is commonly meant the average time that molecules of a dose stay in the body.

Regarding `O=C(O)C1(c2ccc(-c3cc(Cl)cc(Cl)c3)c(F)c2)CC1`, the IC50 in data set [1] came out at 1530 nM. In data set [2], the MRT inf amounted to 51.1 h. For the same compound, the Activity entry in data set [3], in data set [4] and in data set [5] was “Non-Toxic” each time. Also, the Survival in the data set on MCF7 [6] is over 80%. In addition, in the data set on MCF7 [7], the CI worked out at 0.36. Further, the Activity_index with MCF7 [8] came to 13.929.

These data come from ChEMBL document CHEMBL5346950, “Development of Biaryl-Containing Aldo-Keto Reductase 1C3 (AKR1C3) Inhibitors for Reversing AKR1C3-Mediated Drug Resistance in Cancer Treatment” (J Med Chem, 2023).
